Test: Sensory panel ranking of lingering aftertaste masking on a 0-5 scale (Example III)
Format: in vivo
Conditions: for Masking Effect: scale of 0-5, 0=no masking, 5=very strong masking; for Taste compared with the control: αG SWEET 0.14% solution, water used in control group, concentration series
Method: A solution of αG SWEET was prepared in water at a concentration of 0.14%. The Emblica officinalis fruit extract (prepared as above in Example I) containing the mucic acid 2-O-gallate (11.84%) and mucic acid lactone gallate (6.35%) mixture, individual fractions containing each of mucic acid 2-O-gallate, mucic acid lactone gallate, galloyl glucose (prepared in Example I) and mucic acid 3-O-gallate (Quality Phytochemicals, LLC, New Jersey, U.S.) were added to the αG SWEET solution, respectively, to achieve a series of concentrations ranging from about 50-80 ppm for the Emblica officinalis fruit extract; about 5-20 ppm for mucic acid 2-O-gallate; about 5-20 ppm for mucic acid 3-O-gallate; about 2-10 ppm for mucic acid lactone gallate; and about 10-20 ppm for galloyl glucose. Water was used in a control group. Samples were presented in a blind and pseudorandom order to a sensory panel. The lingering aftertaste-masking effect was evaluated by ranking the suppression of bitterness, metallic aftertaste and lingering sweetness on a scale of 0-5, where 0=no masking and 5=very strong masking.

[1] = 20 ppm in αG SWEET 0.14% solution

Compound | Masking Effect [1] | Taste compared with the control | Masking Effect (10 ppm in αG SWEET 0.14% solution)
O=C(OC(C(O)C(=O)O)C(O)C(O)C(=O)O)c1cc(O)c(O)c(O)c1 (centres unmarked) [Mucic Acid 3-O-Gallate, mucic acid 3-O-gallate] | 1 | tasted considerably less bitter and the lingering metallic off-note was reduced | 
O=C(OC(C(=O)O)C(O)C(O)C(O)C(=O)O)c1cc(O)c(O)c(O)c1 (centres unmarked) [Mucic acid 2-O-gallate, mucic acid 2-O-gallate] | 1 | tasted considerably less bitter and the lingering metallic off-note was reduced | 
O=C(OC(C(=O)O)C1OC(=O)C(O)C1O)c1cc(O)c(O)c(O)c1 (centres unmarked) [Mucic acid lactone gallate, mucic acid lactone gallate] |  | tasted considerably less bitter and the lingering metallic off-note was reduced | 2
galloyl glucose [reference compound] | 0 | very low effect | 

Source: US11191291B2, “Compositions for taste masking” (International Flavors & Fragrances Inc., priority 2016, dated 2021)
